Assays:
Format in all cases: cell-based
[1] = tested on: human aortic smooth muscle cells (hAoSMC); assay: Scratch wound assay of human aortic SMCs (cell migration); design: VSMC migration (wound reclosure) / VSMC migration versus control: dose or concentration left out as unconfirmed; settings: for wound reclosure: 100 μM OAG
Description: (§1) Human aortic smooth muscle cells (hAoSMC) were purchased from PromoCell (Heidelberg, Germany) and cultured at 37° C. in a humidified 5% CO2 atmosphere in the recommended cell culture medium (PromoCell, Heidelberg, Germany).
For scratch wound assays, cells were seeded in 24 well plates at a density of 100,000 cells per well. After they had grown to confluence for 24 h the cell monolayer was scratched in the middle with a 200 μl pipette tip. Cells were washed with PBS and incubated in growth medium supplemented with OAG (Sigma-Aldrich, St. […] Wound area was measured directly after the scratch (t0) and after 6 h (t1), 8 h (t2) and 12 h (t3) with a phase-contrast microscope (Axiovert 100, Zeiss, Oberkochen, Germany) and assessed with ImageJ version 1.47v. Wound reclosure was measured as Δt0-t1 (6 h), Δt0-t2 (8 h), and Δt0-t3 (12 h) in pixels. Scratch assays were performed in triplicates. For radius assays, 24-well plates were coated with gelatin solution (Pelobiotech, Planegg, Germany). Culture cylinders (total diameter 4 mm, inner diameter 2 mm; Bioptechs, Butler, Pa., USA) were then placed in the middle of the well and cells were seeded at a density of 100,000 cells per well around the cylinders. 20 μL of SAR 7334 with a final concentration of 100 nM in gelatin were added to the inner of the cylinders. 1% DMSO was used as control. After 24 h of incubation cylinders were removed and pictures were acquired immediately (t0) and after 48 h (t1) using a phase-contrast microscopy system (Axiovert 100, Zeiss, Oberkochen, Germany). Wound reclosure was measured as Δt0-t1 (48 h) in pixels. Measurements were performed in duplicates.
For scratch wound assays, cells were seeded in 24 well plates at a density of 100,000 cells per well. After they had grown to confluence for 24 h the cell monolayer was scratched in the middle with a 200 μl pipette tip. Cells were washed with PBS and incubated in growth medium supplemented with OAG (Sigma-Aldrich, St. Louis, Mo., USA) at final concentration of 100 μM or SAR 7334 (Bio-Techne, Wiesbaden, Germany) at a final concentration of 100 nM. 1% DMSO was used as control. Wound area was measured directly after the scratch (t0) and after 6 h (t1), 8 h (t2) and 12 h (t3) with a phase-contrast microscope (Axiovert 100, Zeiss, Oberkochen, Germany) and assessed with ImageJ version 1.47v. Wound reclosure was measured as Δt0-t1 (6 h), Δt0-t2 (8 h), and Δt0-t3 (12 h) in pixels. Scratch assays were performed in triplicates. For radius assays, 24-well plates were coated with gelatin solution (Pelobiotech, Planegg, Germany). Culture cylinders (total diameter 4 mm, inner diameter 2 mm; Bioptechs, Butler, Pa., USA) were then placed in the middle of the well and cells were seeded at a density of 100,000 cells per well around the cylinders. 20 μL of SAR 7334 with a final concentration of 100 nM in gelatin were added to the inner of the cylinders. 1% DMSO was used as control. After 24 h of incubation cylinders were removed and pictures were acquired immediately (t0) and after 48 h (t1) using a phase-contrast microscopy system (Axiovert 100, Zeiss, Oberkochen, Germany). Wound reclosure was measured as Δt0-t1 (48 h) in pixels. Measurements were performed in duplicates.

[2] = tested on: human aortic smooth muscle cells (hAoSMC); assay: Cell proliferation assay, BrdU ELISA; settings: 100 μM OAG; vehicle 0.08±0.03, p<0.01
Description: as §1
Cell proliferation was assessed using of a colorimetric bromodeoxyuridine (BrdU) enzyme-linked immunosorbent assay (ELISA) according to manufacturer's protocol (Roche Applied Science, Penzberg, Germany). Briefly, cells were seeded in 96 well plates at a density of 10,000 cells per well in starving medium, i.e., lacking FBS and growth factors. After 24 h, the starving medium was replaced by growth medium which was either supplemented with 1-Oleoyl-2-acetyl-sn-glycerol (OAG; Sigma-Aldrich, St. Louis, Mo., USA) at a final concentration of 100 μM, SAR 7334 (Tocris Bioscience, Bristol, UK) at a final concentration of 100 nM or with 1% of DMSO which was used as vehicle. After incubation for another 24 h, 10 μl of BrdU solution were added. Absorbance was measured at 370 nm with a reference wavelength of 492 nm in the Infinite M200 PRO microplate reader using the iControl v1.10 software (both Tecan Group, Männedorf, Switzerland) after further 24 h. Measurements were performed in triplicates.

[3] = tested on: human aortic smooth muscle cells (hAoSMC); assay: Radius migration assay of human aortic SMC on SAR7334 coating; settings: culture dish coated with SAR7334 (100 nM in gelatin), 48 h
Description: as §1
For scratch wound assays, cells were seeded in 24 well plates at a density of 100,000 cells per well. After they had grown to confluence for 24 h the cell monolayer was scratched in the middle with a 200 μl pipette tip. Cells were washed with PBS and incubated in growth medium supplemented with OAG (Sigma-Aldrich, St. Louis, Mo., USA) at final concentration of 100 μM or SAR 7334 (Bio-Techne, Wiesbaden, Germany) at a final concentration of […]. 1% DMSO was used as control. Wound area was measured directly after the scratch (t0) and after 6 h (t1), 8 h (t2) and 12 h (t3) with a phase-contrast microscope (Axiovert 100, Zeiss, Oberkochen, Germany) and assessed with ImageJ version 1.47v. Wound reclosure was measured as Δt0-t1 (6 h), Δt0-t2 (8 h), and Δt0-t3 (12 h) in pixels. […] Wound reclosure was measured as Δt0-t1 (48 h) in pixels. […]
For scratch wound assays, cells were seeded in 24 well plates at a density of 100,000 cells per well. […] Wound area was measured directly after the scratch (t0) and after 6 h (t1), 8 h (t2) and 12 h (t3) with a phase-contrast microscope (Axiovert 100, Zeiss, Oberkochen, Germany) and assessed with ImageJ version 1.47v. […]

Row | SMILES | wound reclosure ([1]; 12 hours after scratch, vehicle 156.93±7.06, p=0.01) | wound reclosure ([1]; eight hours after scratch, vehicle 69.05±7.03, p=0.01) | proliferation of human VSMCs (BrdU ELISA) [2] | local migration versus control culture [3] | VSMC migration versus control ([1]; 6 hours after injury) | VSMC migration versus control ([1]; 8 hours after injury) | VSMC migration (wound reclosure) ([1]; 12 hours after scratch, control 130.0±10.6, p=0.04)
1 | CCCCCCCC/C=C\CCCCCCCC(=O)OC[C@H](CO)OC(C)=O [OAG, 1-oleoyl-2-acetyl-sn-glycerol] | 179.14±3.61 10^3 pixels | 93.09±3.67 10^3 pixels | 0.31±0.07 absorbance units |  |  |  | 
2 | N#Cc1ccc(O[C@@H]2c3ccccc3C[C@H]2N2CCC[C@@H](N)C2)c(Cl)c1 [SAR7334] |  |  |  | reduced local migration | comparable to control levels | comparable to control levels | 111.4±15.5 10^3 pixels
